Laboratory results taken from US9725490B2, “ERAP1-derived peptide and use thereof” (TOKUSHIMA UNIVERSITY, priority 2011, dated 2017).

Experiments:
Type in all cases: cell-based, human
HDAC1 = experiment: Deacetylation (HDAC) assay of anti-PHB2 immunoprecipitate; details: MCF-7, 24 hours
Experimental: FIG. 4-4 is a diagram illustrating that the ERAP1-peptide promotes nuclear translocation of PHB2. […] MCF-7 cells were treated with the ERAP1-peptide and/or 10 nM E2 for 24 hours. Then, the nuclear fraction was immunoprecipitated with anti-ERα antibody or an anti-PHB2 antibody. […] MCF-7 cells were treated with the ERAP1-peptide and/or E2 for 24 hours. Then, the cell lysate was immunoprecipitated with anti-PHB2 antibody. Subsequently, the HDAC activity in the immunoprecipitate was measured with a commercially available kit. The nuclear extract from the HeLa cells and PBS were used as a positive control (P) and as negative control (N), respectively.
HDAC assay was performed using HDAC Fluorescent Activity Assay/Drug Discovery Kit (Enzo Life Sciences, Plymouth Meeting, Pa., USA) in accordance with the instruction of the manufacturer. MCF-7 cells were treated with E2 and/or the ERAP1 peptide(s) for 24 hours in a 6-well plate. Then, the cell extract was immunoprecipitated with anti-PHB2 antibody. Furthermore, the immunoprecipitated cell extract was incubated for 30 minutes in the presence of a substrate at 30° C. After the incubation, the reaction was stopped, and the fluorescence was analyzed with a microplate fluorometer (Infinite M200, Tecan, Mannedorf, Switzerland).

ERα = ERα down-regulation and polyubiquitination in KPL-3C cells; details: in the presence of MG132
Experimental: FIG. 5 is a diagram illustrating the results of immunoblotting analysis by which the effects of the ERAP1-peptide in the down-regulation by polyubiquitination of ERα and proteasome decomposition were evaluated. The upper panel and the lower panel show the results obtained by the procedures described below. Namely, KPL-3C cells were treated with the ERAP1-peptide and/or 10 nM E2 for 1 hour. Then, the protein level and the mRNA level of ERα were examined by Western blotting and semi-quantitative RT-PCR. The results thereof are shown in the upper panel. β-actin is a loading control. Then KPL-3C cells were treated with the ERAP1-peptide and/or E2 in the presence of 1 μM MG-132 for 1 hour. Then, the cell lysate was immunoprecipitated with anti-ERα antibody. The results thereof are shown in the lower panel.

MCF-7 cells = experiment: E2-dependent cell proliferation assay (MTT/CCK-8), MCF-7
Experimental: FIG. 6-1 is a diagram illustrating that ERAP1-peptide treatment suppresses ERα-dependent cell proliferation of breast cancer cell lines. (A) and (B) show the results of MTT assay by which the inhibition effect of the ERAP1-peptide in the E2-dependent cell proliferation was evaluated. MCF-7 cells were treated with the ERAP1-peptide (A, B) the ERAP1-scramble peptide (B) or the ERAP1-mutant peptide (B).
FIG. 7-1 is a diagram illustrating that ERAP1-peptide treatment suppresses ERα-dependent cell proliferation of breast cancer cell lines. […] KPL-3C cells were treated with the ERAP1-peptide, the scramble peptide or the mutant peptide. Then, immediately, the cells were stimulated with 10 nM E2 for 24 hours. […] Then, immediately, the cells were stimulated with 10 nM E2. Then, the ERAP1-peptide was added every day for […]. […] The arrow indicates addition of the ERAP1-peptide.
FIG. 7-3 is a diagram illustrating that ERAP1-peptide treatment suppresses ERα-dependent cell proliferation of breast cancer cell lines. […] MCF-7 cells were treated with 10 μM ERAP1-peptide. Then, immediately, the cells were stimulated with 10 nM E2 (white square). Then, 10 μM ERAP1-peptide was added every day for four days (black square).
FIG. 20 is a diagram illustrating the results of evaluations for the influence of the difference of the sequence on E2-dependent cell proliferation suppression effect. […] Then, immediately, the cells were stimulated with E2 for 24 hours.
MCF-7 cells were suspended in MEM (Invitrogen, Carlsbad, Calif., USA) reinforced with 10% FBS (Nichirei Biosciences, Tokyo, Japan), 1% antibiotic/antimycotic solution (Invitrogen), 0.1 mM NEAA (Tnvitrogen), 1 mM sodium pyruvate and 10 μg/ml insulin (Sigma, St. Louis, Mo., USA). Then, the cell suspension was seeded in a 48-well plate (2×10^4 cells/200 μl), a 24-well plate (1×10^5 cells/1 ml), a 6-well plate (5×10^5 cells/2 ml) or 10 cm dish (2×10^6 cells/10 ml). The cells were maintained at 37° C. in humidified atmosphere containing 5% carbon dioxide. On the next day of the seeding, the culture medium was exchanged with phenol red-free DMEM/F12 (Invitrogen) reinforced with FBS, an antibiotic/antimycotic solution, NEAA, sodium pyruvate and insulin. After 24 hours, the cells were treated with 10 nM 17β estradiol (E2, Sigma). The ERAP-1 peptide was added just before the E2 stimulation in the inhibition test.
Using Cell-Counting Kit-8 (CCK-8, Dojindo, Kumamoto, Japan), the cell proliferation assay was performed. […] Then, the absorbance at 450 nm was measured and the number of living cells in each well was calculated.
The cell proliferation assay was evaluated using Cell-Counting Kit-8 (CCK-8, Dojindo, Kumamoto, Japan). […] Then, 100 μl from each well was moved to a 96-well plate, and the absorbance at 450 nm was measured with a microplate reader.

## CSCC[C@H](NC(=O)[C@H](CCC(N)=O)NC(=O)[C@H](CCCNC(=N)N)NC(=O)[C@H](CCCNC(=N)N)NC(=O)[C@H](CCCNC(=N)N)NC(=O)[C@H](CCCNC(=N)N)NC(=O)[C@H](CCCNC(=N)N)NC(=O)[C@H](CCCNC(=N)N)NC(=O)[C@H](CCCNC(=N)N)NC(=O)[C@H](CCCNC(=N)N)NC(=O)[C@H](CCCNC(=N)N)NC(=O)[C@H](CCCNC(=N)N)NC(=O)[C@@H](N)CCCNC(=N)N)C(=O)N[C@@H](CC(C)C)C(=O)N[C@@H](CO)C(=O)N[C@@H](CC(=O)O)C(=O)N[C@@H](CC(C)C)C(=O)N[C@H](C(=O)N[C@@H](CC(C)C)C(=O)N[C@@H](CCC(N)=O)C(=O)N[C@@H](CC(C)C)C(=O)N[C@@H](CCCNC(=N)N)C(=O)N[C@@H](CCC(N)=O)C(=O)N[C@@H](CCCNC(=N)N)C(=O)O)[C@@H](C)O [ERAP1-peptide]
HDAC1
  activity of HDAC1: accelerated dose-dependently
ERα
  protein decrease and polyubiquitination of ERα: suppression for protein decrease of ERα was similarly recognized with inhibition of polyubiquitination
MCF-7 cells; 10 nM E2, up to 24 hours
  E2-dependent cell proliferation: dose-dependently suppressed the E2-dependent cell proliferation
MCF-7 cells; 5 μM and 10 μM, every 24 hours for four days
  proliferation of the E2-dependent breast cancer cells, repeated administration: completely suppressed
MCF-7 cells; 10 μM single addition
  duration of E2-dependent proliferation suppression effect: complete E2-dependent proliferation suppression effect was recognized up to 24 hours
